Source: US20250064886A1, “CARDIOVASCULAR AND CEREBROVASCULAR DRUG AND USE THEREOF” (HANGZHOU ADAMERCK PHARMLABS INC., priority 2021, published 2025)
Where “and” joins values, the source holds several entries; their conditions need not be identical. Equal values may be shown once.

What was measured:
tryptase = test: Sensitization risk: tryptase expression (OD, BAPNA) in zebrafish (Example 2); assay type: in vivo
Experimental: Experimental method: 2 dpf wild type AB strain zebrafish were randomly selected and placed in a 24-well plate, with each group 6 parallel wells and 10 zebrafish per well. The zebrafish were injected intravenously with samples at a dose of 500 ng/tail and the positive control “C48/80” at a concentration of 1.5 μg/mL, while normal control group was set up. Each well has a capacity of 1 mL.
All experimental groups were given BAPNA by dissolving it in the water. After treatment at 28° C. for 1 day, the liquid was transferred to 96-well plates with 200 μL/well, and the relative absorbance values (OD values) of the expression levels of tryptase in each experimental group were detected using an microplate reader, and the results of the statistical analysis of the OD values were used to evaluate the risk of sensitization by sample. Statistical results were expressed as mean±SE.
Statistical analysis was performed using SPSS software, and p<0.05 indicates significant differences.

[1] = tested on: vascular endothelial-injury thrombosis model in zebrafish; test: Preventative effect of compound (1) on vascular endothelial injury induced thrombosis in zebrafish (Example 3); assay type: in vivo; conditions: for Cardiac erythrocyte staining intensity (pixels, mean ± SE): n = 10
Experimental: Experimental method: Wild-type AB strain zebrafish were treated with 4 μg/mL punatinib for 18 h to establish vascular endothelial-injury thrombosis model in zebrafish. 150 of 5 dpf wild-type AB strain zebrafish were randomly selected and placed in six-well plates with 30 fish per well (experimental group). The zebrafish were injected with compound (1) at a dose of 2.06 ng/tail, and 6.18 ng/tail, and the positive control drug acetylsalicylic acid was given by dissolving it in water with a concentration of 30 µg/mL, while the normal control group (i.e., zebrafish treated with standard dilution water) and the model control group were set up, and the volume of each well (experimental group) was 3 mL. Except for normal control group, the remaining experimental groups were all given Punatinib by dissolving it in water to induce vascular endothelial injury thrombosis model in zebrafish. The zebrafish were co-treated with compound (1) and punatinib for a period of time under incubation condition at 28° C., and then stained with o-dianisidine. After staining, 10 zebrafish were randomly selected from each group and photographed under the microscope. The intensity of cardiac erythrocyte staining in zebrafish was analyzed using NIS-Elements D 3.10 advanced image-processing software, and the preventative effect of compound (I) on vascular endothelial injury thrombosis was evaluated based on the statistical results of cardiac erythrocyte staining intensity. The preventative effect on thrombosis is calculated as follows: […]
Statistical analysis were performed using Analysis of Variance and Dunnett's t-test, and p<0.05 indicates a significant difference, providing a representative experimental plot.

[2] = tested on: rats with focal cerebral ischemia (MCAO)/reperfusion; test: Therapeutic administration, cerebral ischemia-reperfusion injury MCAO/R in rats (Example 7); assay type: in vivo, rat
Experimental: Experimental method: SD rats were randomly divided into 11 groups, including pseudosurgery group, a model control group, positive control drug edaravone via intravenous injection (6 mg/kg, i.v.) group, positive control drug butylphthalide injection via intravenous injection (5 mg/kg, i.v.) group, compound (1) high-dose (24 mg/kg, i.v.), medium-dose (12 mg/kg, i.v.), low-dose (6 mg/kg, i.v.) via intravenous injection group, positive drug butylphthalide soft capsule via intragastric administration (60 mg/kg, i.g.) group, and compound via intragastric administration at (1) high-dose (60 mg/kg, i.g.), medium-dose (30 mg/kg, i.g.), low-dose (15 mg/kg, i.g.) group. A middle cerebral artery occlusion (MCAO) model for cerebral ischemia-reperfusion of male rats was prepared using the internal carotid suture-occluded method with an ischemic time of 90 min followed by reperfusion. Injection and oral administration for once were performed 1 h after reperfusion, and neurobehavioral scoring was performed on rats after 24 h to determine neurological function in rats; the cerebral infarction rate and cerebral water content of rats were determined by 2,3,5-triphenyltetrazolium chloride (TTC) staining.

[3] = tested on: Erastin-induced neuronal cells; test: Cell viability (CCK8) of Erastin-induced neuronal cells (Example 8); assay type: cell-based, rat; conditions: Erastin 50 μM
Experimental: Experimental method: Primary neuron cells were incubated in a medium containing Erastin (final concentration of 50 μM) for 24 hours, and then incubated in a medium containing different concentrations of the test drug and Erastin (final concentration of 50 μM) for another 24 hours. After incubation, Real time PCR was used to detect mRNA expression of GPX4 in each group of cells, CCK8 assay was used to detect cell viability in each group of cells, C11-BODIPY probe method was used to detect intracellular lipid ROS levels in each group of cells, and PGSK probe method was used to detect iron content in cells.
The experimental data were expressed in means±SD, and statistical differences between groups were determined using one-way ANOVA and Tukey's test, with p-values less than 0.05 considered significant.
After incubation, the CCK8 experiment was used to detect the cell viability of each group of cells. The results were presented as Mean±SD. Compared with control group, ***p<0.0001. Compared with model control group, ^#P<0.05, ^##P<0.01.

CC(=O)N[C@H](CSCC1OC2OC3C(CSC[C@@H](NC(C)=O)C(=O)[O-])OC(OC4C(CSC[C@@H](NC(C)=O)C(=O)[O-])OC(OC5C(CSC[C@@H](NC(C)=O)C(=O)[O-])OC(OC6C(CSC[C@@H](NC(C)=O)C(=O)[O-])OC(OC7C(CSC[C@@H](NC(C)=O)C(=O)[O-])OC(OC8C(CSC[C@@H](NC(C)=O)C(=O)[O-])OC(OC9C(CSC[C@@H](NC(C)=O)C(=O)[O-])OC(OC1C(O)C2O)C(O)C9O)C(O)C8O)C(O)C7O)C(O)C6O)C(O)C5O)C(O)C4O)C(O)C3O)C(=O)[O-].[Na+].[Na+].[Na+].[Na+].[Na+].[Na+].[Na+].[Na+] (some centres unmarked) [Compound (1)]
Sensitization risk, in words (tryptase; 500 ng/tail): no or substantially no sensitization risk | Relative sensitization risk (compared with positive control group) (tryptase; 500 ng/tail intravenous): 13% | Sensitization risk (%) (tryptase; 500 ng/tail intravenous): 11.1% | Absorbance value (OD value), parallel wells 1-6 (tryptase; 500 ng/tail intravenous, 28° C. 1 day, single wells): 0.05725 and 0.05895 and 0.06195 and 0.06575 and 0.05845 and 0.05605 | Absorbance value (OD value), mean (tryptase; 500 ng/tail intravenous, mean of 6 wells): 0.060 | Thromboprophylactic effect (%) ([1]; 2.06 ng/tail): 83% | Cardiac erythrocyte staining intensity (pixels, mean ± SE) ([1]; 2.06 ng/tail): 4601 ± 265 pixels | Cardiac erythrocyte staining intensity (pixels, mean ± SE) ([1]; 2.06 ng/tail, listed as compound (1)): 4601 pixels | Thromboprophylactic effect (%) ([1]; 6.18 ng/tail): 99% | Cardiac erythrocyte staining intensity (pixels, mean ± SE) ([1]; 6.18 ng/tail): 5044 ± 345 pixels | Cardiac erythrocyte staining intensity (pixels, mean ± SE) ([1]; 6.18 ng/tail, listed as compound (1)): 5044 pixels | Behavioral score ([2]; 6 mg/kg i.v. low-dose): 2.13 ± 0.35 | Cerebral infarction rate (%) ([2]; 6 mg/kg i.v. low-dose): 30.03 ± 7.79% | Cerebral water content (%) ([2]; 6 mg/kg i.v. low-dose): 82.30 ± 1.04 % | Behavioral score ([2]; 12 mg/kg i.v. medium-dose): 1.88 ± 0.35 | Cerebral infarction rate (%) ([2]; 12 mg/kg i.v. medium-dose): 16.94 ± 9.52 % | Cerebral water content (%) ([2]; 12 mg/kg i.v. medium-dose): 80.74 ± 0.89 % | Behavioral score ([2]; 15 mg/kg i.g. low-dose): 2.25 ± 0.71 | Cerebral infarction rate (%) ([2]; 15 mg/kg i.g. low-dose): 29.49 ± 5.93% | Cerebral water content (%) ([2]; 15 mg/kg i.g. low-dose): 82.24 ± 1.49% | Behavioral score ([2]; 24 mg/kg i.v. high-dose): 1.62 ± 0.52 | Cerebral water content (%) ([2]; 24 mg/kg i.v. high-dose): 79.95 ± 1.16 % | Cerebral infarction rate (%) ([2]; 24 mg/kg i.v. high-dose, 1 h after reperfusion): 11.64 ± 9.38 % | Behavioral score ([2]; 30 mg/kg i.g. medium-dose): 2.00 ± 0.53 | Cerebral infarction rate (%) ([2]; 30 mg/kg i.g. medium-dose): 21.52 ± 11.04 % | Cerebral water content (%) ([2]; 30 mg/kg i.g. medium-dose): 80.61 ± 1.21 % | Behavioral score ([2]; 60 mg/kg i.g. high-dose): 1.62 ± 0.52 | Cerebral infarction rate (%) ([2]; 60 mg/kg i.g. high-dose): 13.61 ± 10.24 % | Cerebral water content (%) ([2]; 60 mg/kg i.g. high-dose): 79.87 ± 1.71 % | Cell viability (%) ([3]; 1 μM, 24 h, control = 100, Mean±SD): 57.01 ± 2.82^ % | Cell viability (%) ([3]; 2.5 μM): 61.77 ± 6.56^ % | Cell viability (%) ([3]; 5 μM): 65.4 ± 5.81% | Cell viability (%) ([3]; 10 μM): 76.62 ± 5.99^## % | Cell viability (%) ([3]; 20 μM): 80.62 ± 5.39^## % | Cell viability (%) ([3]; 40 μM): 83.43 ± 6.21^## %
